Reference: patent publication US9687429B2, “Antimicrobial compositions containing low concentrations of botanicals” (THE TRUSTEES OF COLUMBIA UNIVERSITY IN THE CITY OF NEW YORK, priority 2007, dated 2017)

Legend:
[1] = system: S. aureus; test: Five-minute kill test of solutions in 10% SDA40-B alcohol and water, colony counts; assay type: cell-based; conditions: control counts 1 × 10^6 to 5 × 10^6
Experimental: Various concentrations of basil oil and acetic, lactic, and citric acids, separately and in combination, were prepared in 10 percent SDA40-B alcohol and water, and adjusted to 100 percent. Except for citric acid, which was added by weight, all other ingredients were measured by volume. 0.9 ml of each solution were dispensed in sterile culture tubes, in triplicate, and 0.1 ml of a 10^7 cfu/ml S. aureus culture was added to the tubes, vortexed, and then, five minutes later, 9.0 ml of drug inactivating medium was added to each tube. Serial dilutions were made with the drug inactivating medium. 0.5 ml of the dilutions were plated on trypticase soy agar (“TSA”) plates. As a control, water containing 10 percent SDA40-B alcohol was processed in parallel. The plates were incubated at 37° C. for 24-48 hours and then the colony counts were determined.
The same methodology was used to test the antimicrobial activity of combinations of citric acid with other essential oils.
Various concentrations of cinnamon leaf oil and citric acid were dissolved in SDA 40-B alcohol (10%) and water, and adjusted to 100 percent. Except for citric acid, which was added by weight, all other ingredients were measured by volume. 0.9 ml of each solution were dispensed in sterile culture tubes, in triplicate, and 0.1 ml of 10^7 cfu/ml of S. aureus culture was added to the tubes, vortexed, and then, five minutes later, 9.0 ml of drug inactivating medium was added to each tube. Serial dilutions were made with the drug inactivating medium. 0.5 ml of the dilutions were plated on trypticase soy agar (“TSA”) plates. As a control, water containing 10% percent SDA40-B alcohol was processed in parallel. The plates were incubated at 37° C. for 24-48 hours and then the colony counts were determined.
The following experiments were performed to evaluate the antibacterial activity of LG and Citric acid dissolved in alcohol, where the test organism used was S. aureus. Various amounts of LG oil and Citric acid were dissolved in SDA40-B alcohol, and then water was added to result in the EO concentration shown and an alcohol concentration of 10 percent. 0.9 ml of each solution were dispensed in sterile culture tubes, in triplicate, and 0.1 ml of a 10^7 cfu/ml S. aureus culture was added to the tubes, vortexed, and then, five minutes later, 9.0 ml of drug inactivating medium was added to each tube. Serial dilutions were made with drug inactivating medium. 0.5 ml of the dilutions were plated on trypticase soy agar (“TSA”) plates. As a control, water containing 10 percent SDA40-B alcohol was processed in parallel. The plates were incubated at 37° C. for 24-48 hours and then the colony counts were determined.

[2] = system: S. aureus; test: Synergistic activity of essential oils and plant extracts with citric acid, log10 reduction from control bacterial counts; assay type: cell-based; conditions: Table 202, compounds in %, control counts 1×10^7 to 5×10^7
Source text: Log10 reduction from control bacterial counts that range from 1×10^7 to 5×10^7.

[3] = system: S. aureus; test: Soap rapid kill test (30 second kill) in presence of bovine serum; assay type: cell-based
Experimental: The antimicrobial activity of the above soap was tested in parallel with commercial Softsoap® containing triclosan (Softsoap® Antibacterial; Colgate-Palmolive). 0.1 ml of a 10^8 cfu/ml culture of each microbe tested was mixed with 0.1 ml of bovine serum and placed in a sterile culture tube. 0.8 ml of the test soap formulation was added to the tube and vortexed for 30 seconds. Then 9.0 ml DNB was added to neutralize the activity of the soap. The tube was then vortexed and serially diluted with DNB. 0.5 ml of the diluted solution was plated on TSA plates. The same soap base lacking cinnamon oil, citric acid, and orange oil, with phosphate buffered saline mixed with the culture, were used as the controls.
The antimicrobial activity of the above soap was tested in parallel with commercial Dial® Antibacterial Hand Soap) containing triclosan. 0.1 ml of a 10^8 cfu/ml culture of each microbe tested was mixed with 0.1 ml of bovine serum and placed in a sterile culture tube. 0.8 ml of the test soap formulation was added to the tube and vortexed for 30 seconds. Then 9.0 ml DNB was added to neutralize the activity of the soap. The tube was then vortexed and serially diluted with DNB. 0.5 ml of the diluted solution was plated on TSA plates. The same soap base lacking cinnamon oil, citric acid, and orange oil, with phosphate buffered saline mixed with the culture, were used as the controls.
The following method was used. A mixture of 0.1 ml of 10^7 cfu/ml of S. aureus culture and 0.1 ml of bovine serum were placed in a sterile culture tube. 0.8 ml of the test soap formulation was added to the tube and vortexed for 30 seconds. 9.0 ml DFN was added to the tube to neutralize the activity of the soap; this tube was then vortexed and serially diluted with DFN. 0.5 ml of the diluted solution was plated on trypticase soy agar plates, incubated at 37° C. for 24-48 hours and the colony counts were determined. Soft Soap® and Dial® soaps containing 0.15% triclosan was also tested similarly at the same time. The soap base without essential oils and Citric acid containing the culture were used as controls.
The following method was used. A mixture of 0.1 ml of 10^7 cfu/ml of S. aureus culture and 0.1 ml of bovine serum were placed in a sterile culture tube. 0.8 ml of the test soap formulation was added to the tube and vortexed for 30 seconds. 9.0 ml DFN was added to the tube to neutralize the activity of the soap; this tube was then vortexed and serially diluted with DFN. 0.5 ml of the diluted solution was plated on trypticase soy agar plates, incubated at 37° C. for 24-48 hrs and the colony counts were determined. Soft Soap® and Dial® soaps containing 0.15% triclosan was also tested similarly at the same time. The soap base without essential oils and citric acid containing the culture were used as controls.
The following method was used. A mixture of 0.1 ml of 10^8 cfu/ml of S. aureus culture and 0.1 ml of bovine serum were placed in a sterile culture tube. 0.8 ml of the test soap formulation was added to the tube and vortexed for 30 seconds. 9.0 ml DFN was added to the tube to neutralize the activity of the soap; this tube was then vortexed and serially diluted with DFN. 0.5 ml of the diluted solution was plated on trypticase soy agar plates, incubated at 37° C. for 24-48 hours and the colony counts were determined.
A mixture of 0.1 ml of 10^7 cfu/ml of S. aureus culture and 0.1 ml of bovine serum were placed in a sterile culture tube. 0.8 ml of the test soap formulation was added to the tube and vortexed for 30 seconds. 9.0 ml DFN was added to the tube to neutralize the activity of the soap; this tube was then vortexed and serially diluted with DFN.

[4] = system: S. aureus; conditions: erythromycin, gentamicin, vancomycin, ciproflaxin, clindamycin, tetracycline; cited from earlier work

Structure (SMILES): CC(C)=CCCC(C)=CCCC(C)=CCO [0.25% Farnesol]
- Log10 Reduction from control bacterial counts ([1]; Table 106, five minutes): 0 Log10

Structure (SMILES): O=C(O)CC(O)(CC(=O)O)C(=O)O [1 Citric acid]
- Log10 Reduction from control bacterial counts [2]: 0.7 Log10

Structure (SMILES): CC(=O)O [1% Acetic acid (AA)]
- Log10 Reduction from control bacterial counts ([1]; Table 105, five minutes): 0.2 Log10

Structure (SMILES): O=C(O)CC(O)(CC(=O)O)C(=O)O [1% Citric Acid (CA)]
- Log10 Reduction from control bacterial counts ([1]; Table 105, five minutes): 0.1 Log10

Structure (SMILES): CC(O)C(=O)O (centres unmarked) [1% Lactic acid (LA)]
- Log10 Reduction from control bacterial counts ([1]; Table 105, five minutes): 2.3 Log10

Structure (SMILES): CCCCCCCCC(O)CO (centres unmarked) [1,2 decanediol (0.3%)]
- Log10 reduction from control ([3]; Table 150, 30 seconds, bovine serum, alkanediols 0.3%, control 2 × 10^8-5 × 10^8): 0.6 Log10

Structure (SMILES): CCCCCCCCC(O)CO (centres unmarked) [1,2 decanediol(0.5%)]
- Log10 reduction from control ([3]; Table 151, 30 second Kill, alkanediols 0.5%, soaps pH 4.5-4.6, control 2 × 10^8-5 × 10^8): 1.4 Log10

Structure (SMILES): CC(C)=CCC/C(C)=C/CC1CCCC1=O (centres unmarked) [apritone]
- effect on susceptibility of S. aureus to antibiotics (in words) [4]: enhanced the susceptibility of S. aureus

Structure (SMILES): CC(C)=CCC[C@](C)(O)C1CC=C(C)CC1 (some centres unmarked) [bisabolol]
- effect on susceptibility of S. aureus to antibiotics (in words) [4]: enhanced the susceptibility of S. aureus

Structure (SMILES): O=C(O)CC(O)(CC(=O)O)C(=O)O [citric acid]
- antibacterial activity of soap, 30 second kill (in words) ([3]; bovine serum): enhance the activity of soaps containing triclosan

Structure (SMILES): CCCCCCCCC(O)CO (centres unmarked) [decanediol, 1,2 decanediol]
- antibacterial activity of soap, 30 second kill (in words) ([3]; bovine serum): enhances the activity of Dial®-T Soap+LG-O-Cit 4

Structure (SMILES): C=CCc1ccc(O)c(OC)c1 [eugenol]
- antibacterial activity of soap, 30 second kill (in words) ([3]; bovine serum): improved the antimicrobial effect

Structure (SMILES): CC(C)=CCCC(C)=CCCC(C)=CCO [farnesol]
- effect on susceptibility of S. aureus to antibiotics (in words) [4]: enhanced the susceptibility of S. aureus

Structure (SMILES): C=CC(C)(O)CCC=C(C)CCC=C(C)C (centres unmarked) [nerolidol]
- effect on susceptibility of S. aureus to antibiotics (in words) [4]: enhanced the susceptibility of S. aureus
